ED50 data for 30 compounds are collected here from patent US20240383882A1 (Ecstasy LLC, priority 2020, published 2024).

Structures can show the parent of a compound that is named as a salt. Where only a bound is given, the exact number is not on record here.

One assay concerns male C57BL/6 mice. As to the kind of experiment: 55° C. warm-water tail-flick test (antinociception). In kind it is in vivo. To be noted: Mus musculus, sc, 0.5 h, compounds of Table I; s.c.; 30 min; 55° C. water; configuration tested as in Table II; read-out: ED50 (mg/kg) at 30 min on C57BL/6 mice in Warm-water Tail-flick Test. How it is done: Antinociception was assessed using the 55° C. warm-water tail-flick test. The latency to the first sign of a rapid tail flick was taken as the behavioral endpoint. Each mouse was first tested for baseline latency by immersing its tail in the water and recording the time to response. Mice not responding within 2 secs were excluded from further testing. Responsive mice were then s.c. administered the test compound and tested for antinociception at 30 min, 60 min, 90 min, and 120 min time points afterward. Antinociception was calculated using the following formula: percentage of antinociception=100×(test latency−control latency)/(20−control latency).
The following new compounds were also made and tested to determine the half maximal possible effective dose, or ED50 (mg/kg), in mice, using one of: the warm water tail-flick test as in Table II, spared nerve injury, chronic constriction injury, or Complete Freund's adjuvant induced inflammatory pain. The symbols in the last column are: + indicates ED 50>50 mg/kg; ++ indicates ED 50 is less than or equal to 30 mg/kg.
For orientation: In hot-plate and tail-flick tests a longer latency is read as antinociception.
In the case of `OCC1(CCc2ccc(F)cc2)CCN(Cc2cccnc2)C1` (single isomer, unassigned) [Compound 44], the ED50 was at most 30 mg/kg.
Same read-out and setting: for `CCOC(c1ccccc1)C1(CCc2ccc(F)s2)CCN(C(C)(C)c2ccc(C)nc2)C1` (single isomer, unassigned) [Compound 97, 5-(2-((R or S)-3-((R or S)-ethoxy(phenyl)methyl)-3-(2-(5-fluorothiophen-2-yl)ethyl)pyrrolidin-1-yl)propan-2-yl)-2-methylpyridine citrate] the value was at most 30 mg/kg.

Still in this assay, the particulars now being: Mus musculus, sc, 0.5 h, compounds of Table III; s.c.; 30 min; 55° C. water; configuration tested as in Table IV; read-out: ED50 (mg/kg) at 30 min on C57BL/6 mice in Warm-water Tail-flick Test (same as Table II).
For the compound `CC(C)(c1ccsc1)N1CCC(CCc2cccs2)(C2CCCO2)C1` (single isomer, unassigned) [Compound 24], the ED50 is at most 30 mg/kg.

The assay is the same for the next values; noted with them: Mus musculus; half maximal effective dose in mice; using one of: warm water tail-flick test, spared nerve injury, chronic constriction injury, or Complete Freund's adjuvant induced inflammatory pain (not stated which per compound); read-out: Biological Activity (ED50).
Consider `CC(C)C(O)[C@]1(CCc2ccc(C#N)cc2)CCN(C(C)(C)c2ccccn2)C1` (single isomer, unassigned) [Compound 61], for which the ED50 is over 50 mg/kg.
`Cc1cccc(C(C)(C)N2CC[C@](CO)(CCc3ccc(C#N)cc3)C2)n1` [Compound 144, (R)-4-(2-(3-(hydroxymethyl)-1-(2-(6-methylpyridin-2-yl)propan-2-yl)pyrrolidin-3-yl)ethyl) benzonitrile]: the ED50 was over 50 mg/kg.
The same measure, in the same setting: for `CCOC[C@]1(CCc2ccc(C#N)cc2)CCN(Cc2cccnc2)C1` [Compound 3, (R)-4-(2-(3-(ethoxymethyl)-1-(pyridin-3-ylmethyl)pyrrolidin-3-yl)ethyl) benzonitrile] the value was at most 30 mg/kg; for `N#Cc1ccc(CC[C@@]2(C3OCC3(F)F)CCN(Cc3ccccn3)C2)cc1` (single isomer, unassigned) [Compound 196, 4-(2-((R)-3-((R or S)-3,3-difluorooxetan-2-yl)-1-(pyridin-2-ylmethyl)pyrrolidin-3-yl)ethyl) benzonitrile], at most 30 mg/kg; for `CC(C)(c1ccccn1)N1CC[C@](CO)(CCc2ccc(S(C)(=O)=O)cc2)C1` [Compound 53], over 50 mg/kg.
With `Cc1ccc(CN2CC[C@@](CCc3ccc(C#N)cc3)(C3OCC3(F)F)C2)cn1` (single isomer, unassigned) [Compound 198, 4-(2-((R)-3-((R or S)-3,3-difluorooxetan-2-yl)-1-((6-methylpyridin-3-yl)methyl)pyrrolidin-3-yl)ethyl) benzonitrile], the ED50 was at most 30 mg/kg.
On the same count and under the same terms, the value for `CCOC(C(F)(F)F)(C(F)(F)F)[C@]1(/C=C/c2ccc3nonc3c2)CCN(C(C)(C)c2ccc(C)nc2)C1` [Compound 186, (S,E)-5-(2-(3-(2-ethoxy-1,1,1,3,3,3-hexafluoropropan-2-yl)-1-(2-(6-methylpyridin-3-yl)propan-2-yl)pyrrolidin-3-yl)vinyl)benzo[c] [1,2,5]oxadiazole] was at most 30 mg/kg.
Same read-out and setting: for `CCOC[C@]1(CCc2cccc(C#N)c2)CCN(C(C)(C)c2ccccn2)C1` [Compound 128, (R)-3-(2-(3-(ethoxymethyl)-1-(2-(pyridin-2-yl)propan-2-yl)pyrrolidin-3-yl)ethyl) benzonitrile] the value was over 50 mg/kg; for `CC(C)(c1ccccn1)N1CC[C@@](CCc2ccc(C#N)cn2)(C(O)C(F)(F)F)C1` (single isomer, unassigned) [Compound 120, 6-(2-((R)-1-(2-(pyridin-2-yl)propan-2-yl)-3-((R or S)-2,2,2-trifluoro-1-hydroxyethyl)pyrrolidin-3-yl)ethyl) nicotinonitrile], over 50 mg/kg; for `CC(C)(c1ccccn1)N1CC[C@@](CCc2cccc(C#N)c2)(COCc2ccccc2)C1` [Compound 125, (R)-3-(2-(3-((benzyloxy)methyl)-1-(2-(pyridin-2-yl)propan-2-yl)pyrrolidin-3-yl)ethyl) benzonitrile], over 50 mg/kg.
Turning to `CC(C)(c1ccccn1)N1CC[C@@](CCc2ccc(C#N)cc2)(COCc2ccccc2)C1` [Compound 131, (R)-4-(2-(3-((benzyloxy)methyl)-1-(2-(pyridin-2-yl)propan-2-yl)pyrrolidin-3-yl)ethyl) benzonitrile], the ED50 is over 50 mg/kg.
Regarding `COc1ccc(CN2CC[C@@](CCc3ccc(C#N)cc3)(C3OCC3(C)C)C2)cc1` (single isomer, unassigned) [Compound 205, 4-(2-((R)-3-((R or S)-3,3-dimethyloxetan-2-yl)-1-(4-methoxybenzyl)pyrrolidin-3-yl)ethyl) benzonitrile], the ED50 was at most 30 mg/kg.
On the same count and under the same terms, for `CC(C)(c1ccccn1)N1CC[C@@](CCc2ccc(C#N)cc2)(CNC2(C(F)(F)F)CC2)C1` [Compound 203, (S)-4-(2-(1-(2-(pyridin-2-yl)propan-2-yl)-3-(((1-(trifluoromethyl)cyclopropyl)amino)methyl)pyrrolidin-3-yl)ethyl) benzonitrile] the value was over 50 mg/kg; for `CC(C)(c1ccccn1)N1CC[C@](CO)(CCc2ccc(F)cc2)C1` [Compound 215, (R)-(3-(4-fluorophenethyl)-1-(2-(pyridin-2-yl)propan-2-yl)pyrrolidin-3-yl)methanol], over 50 mg/kg; for `CC(C)c1nc(C(C)(C)N2CC[C@@](CCc3ccc(S(C)(=O)=O)cc3)(C3CCCO3)C2)cs1` (single isomer, unassigned) [Compound 29, 2-isopropyl-4-(2-((R)-3-(4-(methylsulfonyl)phenethyl)-3-((R or S)-tetrahydrofuran-2-yl)pyrrolidin-1-yl)propan-2-yl)thiazole], at most 30 mg/kg.
Same read-out and setting: for `CC(O)[C@]1(CCc2ccc(S(C)(=O)=O)cc2)CCN(C(C)(C)c2ccc(Cl)cc2)C1` (single isomer, unassigned) [Compound 219, (R or S)-1-((R)-1-(2-(4-chlorophenyl)propan-2-yl)-3-(4-(methylsulfonyl)phenethyl)pyrrolidin-3-yl)ethan-1-ol] the value was over 50 mg/kg; for `CC(C)(c1ccccn1)N1CC[C@@](CCc2cccc(C#N)c2)(C(O)C(F)(F)F)C1` (single isomer, unassigned) [Compound 134, 3-(2-((R)-1-(2-(pyridin-2-yl)propan-2-yl)-3-((R or S)-2,2,2-trifluoro-1-hydroxyethyl)pyrrolidin-3-yl)ethyl) benzonitrile], over 50 mg/kg.
Turning to `N#Cc1ccc(CC[C@]2(C3CCO3)CCN(Cc3cccnc3)C2)cc1` (single isomer, unassigned) [Compound 21, 4-(2-((S)-3-((R or S)-oxetan-2-yl)-1-(pyridin-3-ylmethyl)pyrrolidin-3-yl)ethyl) benzonitrile], the ED50 is over 50 mg/kg.
The same measure, in the same setting: the value for `CC(C)(c1ccc(Cl)cc1)N1CC[C@](CO)(CCc2ccc(S(C)(=O)=O)cc2)C1` [Compound 35, (R)-(1-(2-(4-chlorophenyl)propan-2-yl)-3-(4-(methylsulfonyl)phenethyl)pyrrolidin-3-yl)methanol] was over 50 mg/kg; that for `CCOC[C@@]1(CCc2ccc(C#N)cc2)CCN(C(c2cccnc2)c2cccnc2)C1` [Compound 27, (S)-4-(2-(1-(di(pyridin-3-yl)methyl)-3-(ethoxymethyl)pyrrolidin-3-yl)ethyl) benzonitrile] was over 50 mg/kg; that for `CC(C)(c1ccccn1)N1CC[C@@](CCc2ccc3ccoc3c2)(c2c[nH]nn2)C1` [Compound 191, (R)-2-(2-(3-(2-(benzofuran-6-yl)ethyl)-3-(1H-1,2,3-triazol-4-yl)pyrrolidin-1-yl)propan-2-yl)pyridine] was over 50 mg/kg.
Still for that read-out and setting: for `Cc1ccc(C(C)(C)N2CC[C@@](CCc3ccc(C#N)cc3)(COS(C)=O)C2)cn1` (stereo partly drawn) [Compound 20, ((R)-3-(4-cyanophenethyl)-1-(2-(6-methylpyridin-3-yl)propan-2-yl)pyrrolidin-3-yl)methyl methanesulfinate] the value was at most 30 mg/kg; for `Cc1ccc(C(C)(C)N2CC[C@@](CCc3ccc(C#N)cc3)(COCC(F)(F)F)C2)cn1` [Compound 26, (R)-4-(2-(1-(2-(6-methylpyridin-3-yl)propan-2-yl)-3-((2,2,2-trifluoroethoxy)methyl)pyrrolidin-3-yl)ethyl)benzonitrile], over 50 mg/kg.
As to `Cc1ccnc(C)c1CN1CC[C@@](CCc2ccc(C#N)cc2)(C(O)C(F)(F)F)C1` (single isomer, unassigned) [Compound 227, 4-(2-((R)-1-((2,4-dimethylpyridin-3-yl)methyl)-3-((R or S)-2,2,2-trifluoro-1-hydroxyethyl)pyrrolidin-3-yl)ethyl) benzonitrile], the ED50 is over 50 mg/kg.
On the same count and under the same terms, for `CC(C)(c1ccccn1)N1CC[C@@](CCc2ccc(C#N)cc2)(C(=O)O)C1` [Compound 138, (R)-3-(4-cyanophenethyl)-1-(2-(pyridin-2-yl)propan-2-yl)pyrrolidine-3-carboxylic acid] the value was over 50 mg/kg.
Same read-out and setting: the value for `CC(C)(c1ccccn1)N1CC[C@@](CCc2ccc(C#N)cc2)(c2ncc[nH]2)C1` [Compound 107, (R)-4-(2-(3-(1H-imidazol-2-yl)-1-(2-(pyridin-2-yl)propan-2-yl)pyrrolidin-3-yl)ethyl) benzonitrile] was over 50 mg/kg; that for `CC(C)(c1ccccn1)N1CC[C@@](CCc2ccc(C#N)cc2)(CS(C)(=O)=O)C1` [Compound 162, (R)-4-(2-(3-((methylsulfonyl)methyl)-1-(2-(pyridin-2-yl)propan-2-yl)pyrrolidin-3-yl)ethyl) benzonitrile] was over 50 mg/kg.
